Source: a compilation of properties of binary mixtures (doi:10.1007/s10973-018-7399-0)

Experiment: xn = mol fraction of the nth substance listed
Details: 93.2 kPa

CC(=O)[O-].CCCC[NH3+] + CCO
Details | speed of sound, 293.15 K [m/s] | speed of sound, 298.15 K [m/s] | speed of sound, 303.15 K [m/s] | speed of sound, 308.15 K [m/s] | speed of sound, 313.15 K [m/s] | viscosity, 293.15 K [mPa·s] | viscosity, 298.15 K [mPa·s] | viscosity, 303.15 K [mPa·s] | viscosity, 308.15 K [mPa·s] | viscosity, 313.15 K [mPa·s]
x1 = 0.0501 | 1196.2 | 1179.2 | – | 1145.8 | – | 1.96 | 1.76 | – | 1.44 | –
x1 = 0.0992 | 1225.1 | 1208.3 | 1191.7 | 1175.2 | 1158.9 | 2.97 | 2.65 | 2.37 | 2.13 | 1.93
x1 = 0.15 | – | 1234.9 | 1218.5 | 1202.1 | – | – | 3.94 | 3.5 | 3.11 | –
x1 = 0.2001 | – | 1258.4 | 1242.1 | 1225.9 | – | – | 5.77 | 5.08 | 4.49 | –
x1 = 0.2511 | 1296.4 | 1280.1 | 1263.9 | 1247.8 | 1231.9 | 9.6 | 8.32 | 7.24 | 6.34 | 5.58
x1 = 0.3001 | – | 1299 | 1282.9 | 1266.9 | – | – | 11.6 | 10 | 8.67 | –
x1 = 0.35 | 1332.8 | 1316.6 | 1300.6 | – | 1269 | 19.2 | 16.3 | 13.9 | – | 10.3
x1 = 0.3999 | 1349.1 | – | 1317.1 | – | 1285.6 | 26.7 | – | 18.9 | – | 13.9
x1 = 0.4483 | 1363.2 | 1347.1 | 1331.2 | 1315.5 | – | 36.5 | 30.3 | 25.4 | 21.4 | –
x1 = 0.4987 | – | 1361 | 1345.2 | 1329.5 | 1314.1 | – | 41.2 | 34.1 | 28.4 | 24
x1 = 0.5503 | 1390.1 | – | 1358.3 | 1342.7 | 1327.3 | 69.5 | – | 45.9 | 37.9 | 31.6
x1 = 0.6002 | 1402 | – | 1370.2 | 1354.6 | 1339.2 | 94 | – | 60.7 | 49.5 | 40.9
x1 = 0.6511 | 1413.7 | 1397.6 | 1381.7 | 1366.1 | – | 128 | 101.1 | 80.6 | 65 | –
x1 = 0.7008 | – | – | 1392.4 | 1376.8 | 1361.4 | – | – | 106 | 84.2 | 68.1
x1 = 0.7495 | – | – | 1402.4 | 1386.7 | 1371.3 | – | – | 138 | 109 | 86.6
x1 = 0.7988 | – | 1428.3 | 1412.2 | 1396.3 | 1380.9 | – | 235 | 180 | 140 | 110
x1 = 0.8496 | – | – | 1421.9 | – | 1390.4 | – | – | 238 | – | 141
x1 = 0.9015 | 1466 | 1448.3 | 1431.5 | 1415.3 | 1399.6 | 585 | 424 | 313 | 236 | 181
x1 = 0.9493 | 1476.4 | 1457.8 | 1440.5 | 1423.9 | – | 797 | 566 | 412 | 305 | –
x1 = 1 | 1488 | 1468.3 | – | 1433 | 1416.7 | 1103 | 765 | – | 397 | 295
